Data published in PMC9851200, “Multiparameter phenotypic screening for endogenous TFEB and TFE3 translocation identifies novel chemical series modulating lysosome function” (Autophagy, 2022).

Tests used:
Format in all cases: binding
[1] = molecular target: kinases (KINOMEscan panel) (Homo sapiens, UniProt P08069); settings: kinase IGF1R; NEW KINOMEscan
[2] = molecular target: kinases (KINOMEscan panel) (Homo sapiens, UniProt P42336, E545K); settings: NEW KINOMEscan
[3] = molecular target: kinases (KINOMEscan panel) (Homo sapiens, UniProt Q9Y2H9); settings: MAST1; NEW KINOMEscan
Sequence of kinases (KINOMEscan panel) (Homo sapiens, UniProt Q9Y2H9) (Q9Y2H9 whole entry): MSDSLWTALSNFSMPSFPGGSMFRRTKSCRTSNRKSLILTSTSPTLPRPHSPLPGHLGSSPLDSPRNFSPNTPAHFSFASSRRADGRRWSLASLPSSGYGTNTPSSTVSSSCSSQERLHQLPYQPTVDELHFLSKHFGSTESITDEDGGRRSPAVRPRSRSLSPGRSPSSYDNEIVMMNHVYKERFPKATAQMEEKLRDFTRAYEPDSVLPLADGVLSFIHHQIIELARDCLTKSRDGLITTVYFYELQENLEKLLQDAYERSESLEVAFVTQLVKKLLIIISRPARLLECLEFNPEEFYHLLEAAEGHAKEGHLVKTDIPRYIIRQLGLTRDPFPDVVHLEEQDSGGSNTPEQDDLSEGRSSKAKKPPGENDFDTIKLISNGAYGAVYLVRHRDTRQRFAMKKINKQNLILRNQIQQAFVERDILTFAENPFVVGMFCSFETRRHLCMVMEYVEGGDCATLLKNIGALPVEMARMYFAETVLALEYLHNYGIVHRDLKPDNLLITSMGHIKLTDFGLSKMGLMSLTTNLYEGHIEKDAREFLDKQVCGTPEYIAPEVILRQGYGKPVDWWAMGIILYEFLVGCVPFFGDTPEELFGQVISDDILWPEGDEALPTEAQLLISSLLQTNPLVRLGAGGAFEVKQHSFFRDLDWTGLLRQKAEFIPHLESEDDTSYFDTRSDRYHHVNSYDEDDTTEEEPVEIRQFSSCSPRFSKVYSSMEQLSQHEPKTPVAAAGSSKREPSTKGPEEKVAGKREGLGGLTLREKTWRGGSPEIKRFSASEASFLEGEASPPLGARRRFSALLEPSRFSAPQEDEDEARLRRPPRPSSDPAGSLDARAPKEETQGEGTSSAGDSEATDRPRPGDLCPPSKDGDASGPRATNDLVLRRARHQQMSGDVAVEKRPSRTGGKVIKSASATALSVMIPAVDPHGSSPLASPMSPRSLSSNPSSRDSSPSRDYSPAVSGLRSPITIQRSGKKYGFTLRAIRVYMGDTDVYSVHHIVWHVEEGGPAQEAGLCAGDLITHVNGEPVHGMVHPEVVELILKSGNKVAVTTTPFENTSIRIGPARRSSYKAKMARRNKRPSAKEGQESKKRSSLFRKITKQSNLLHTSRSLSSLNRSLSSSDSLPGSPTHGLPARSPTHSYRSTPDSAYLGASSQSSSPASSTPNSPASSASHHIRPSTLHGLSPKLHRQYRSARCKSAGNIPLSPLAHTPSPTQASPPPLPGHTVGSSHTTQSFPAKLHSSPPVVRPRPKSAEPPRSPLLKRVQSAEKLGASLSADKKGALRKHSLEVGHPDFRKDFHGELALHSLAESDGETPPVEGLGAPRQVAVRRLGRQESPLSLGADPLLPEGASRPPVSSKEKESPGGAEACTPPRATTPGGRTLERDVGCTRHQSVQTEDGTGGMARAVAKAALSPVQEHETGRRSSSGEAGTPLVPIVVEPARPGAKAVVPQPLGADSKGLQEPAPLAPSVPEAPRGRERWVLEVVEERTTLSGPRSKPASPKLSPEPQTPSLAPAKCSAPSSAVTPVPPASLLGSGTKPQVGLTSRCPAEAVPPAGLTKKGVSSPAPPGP

[4] = molecular target: kinases (KINOMEscan panel) (Homo sapiens, UniProt Q08345); settings: DDR1; NEW KINOMEscan
Sequence of kinases (KINOMEscan panel) (Homo sapiens, UniProt Q08345) (Q08345 19-913): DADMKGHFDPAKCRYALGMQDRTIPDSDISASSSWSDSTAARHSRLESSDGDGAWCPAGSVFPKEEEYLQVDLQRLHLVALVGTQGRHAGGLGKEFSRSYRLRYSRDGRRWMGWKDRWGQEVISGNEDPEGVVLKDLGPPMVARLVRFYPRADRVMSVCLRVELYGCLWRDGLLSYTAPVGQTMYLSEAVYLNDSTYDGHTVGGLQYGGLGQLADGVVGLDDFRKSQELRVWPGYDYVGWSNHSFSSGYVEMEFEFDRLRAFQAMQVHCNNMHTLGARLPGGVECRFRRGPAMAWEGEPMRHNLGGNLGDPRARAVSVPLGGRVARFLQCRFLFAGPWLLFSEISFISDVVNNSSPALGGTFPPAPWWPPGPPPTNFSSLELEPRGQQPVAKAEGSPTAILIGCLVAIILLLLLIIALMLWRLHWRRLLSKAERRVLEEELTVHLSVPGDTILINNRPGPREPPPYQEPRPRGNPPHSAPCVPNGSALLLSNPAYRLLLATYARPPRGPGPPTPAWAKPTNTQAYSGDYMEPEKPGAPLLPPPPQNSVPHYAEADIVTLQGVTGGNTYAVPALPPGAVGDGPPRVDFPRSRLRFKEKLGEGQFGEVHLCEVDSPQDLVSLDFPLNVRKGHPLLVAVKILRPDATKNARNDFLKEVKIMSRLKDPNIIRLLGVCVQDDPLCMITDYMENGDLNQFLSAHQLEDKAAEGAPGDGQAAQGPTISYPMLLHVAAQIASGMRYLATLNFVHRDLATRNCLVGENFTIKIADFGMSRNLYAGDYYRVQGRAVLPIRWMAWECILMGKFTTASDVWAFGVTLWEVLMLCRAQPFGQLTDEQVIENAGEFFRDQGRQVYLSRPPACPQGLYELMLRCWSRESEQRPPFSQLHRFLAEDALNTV

[5] = molecular target: kinases (KINOMEscan panel) (Homo sapiens, UniProt P06239); settings: LCK; NEW KINOMEscan
[6] = molecular target: kinases (KINOMEscan panel) (Homo sapiens, UniProt Q9UM73, C1156Y); settings: kinase ALK(C1156Y); NEW KINOMEscan
[7] = molecular target: T1, kinases (KINOMEscan panel) (Homo sapiens, UniProt Q96PN8); settings: kinase TSSK3; NEW KINOMEscan
T1 sequence (Q96PN8 1-268): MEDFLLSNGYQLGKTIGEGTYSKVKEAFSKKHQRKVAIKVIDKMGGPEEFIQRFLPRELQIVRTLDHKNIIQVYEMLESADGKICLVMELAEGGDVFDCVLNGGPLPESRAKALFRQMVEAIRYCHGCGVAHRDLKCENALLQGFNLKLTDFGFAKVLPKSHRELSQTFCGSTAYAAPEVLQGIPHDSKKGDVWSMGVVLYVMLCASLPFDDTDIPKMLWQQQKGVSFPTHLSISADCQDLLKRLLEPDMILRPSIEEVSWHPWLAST

[8] = molecular target: kinases (KINOMEscan panel) (Homo sapiens, UniProt Q9P286); settings: kinase PAK5; NEW KINOMEscan
[9] = molecular target: kinases (KINOMEscan panel) (Homo sapiens, UniProt Q13177); settings: PAK2; NEW KINOMEscan
[10] = molecular target: T2, kinases (KINOMEscan panel) (Homo sapiens, UniProt P54760); settings: EPHB4; NEW KINOMEscan
T2 sequence (P54760 16-987): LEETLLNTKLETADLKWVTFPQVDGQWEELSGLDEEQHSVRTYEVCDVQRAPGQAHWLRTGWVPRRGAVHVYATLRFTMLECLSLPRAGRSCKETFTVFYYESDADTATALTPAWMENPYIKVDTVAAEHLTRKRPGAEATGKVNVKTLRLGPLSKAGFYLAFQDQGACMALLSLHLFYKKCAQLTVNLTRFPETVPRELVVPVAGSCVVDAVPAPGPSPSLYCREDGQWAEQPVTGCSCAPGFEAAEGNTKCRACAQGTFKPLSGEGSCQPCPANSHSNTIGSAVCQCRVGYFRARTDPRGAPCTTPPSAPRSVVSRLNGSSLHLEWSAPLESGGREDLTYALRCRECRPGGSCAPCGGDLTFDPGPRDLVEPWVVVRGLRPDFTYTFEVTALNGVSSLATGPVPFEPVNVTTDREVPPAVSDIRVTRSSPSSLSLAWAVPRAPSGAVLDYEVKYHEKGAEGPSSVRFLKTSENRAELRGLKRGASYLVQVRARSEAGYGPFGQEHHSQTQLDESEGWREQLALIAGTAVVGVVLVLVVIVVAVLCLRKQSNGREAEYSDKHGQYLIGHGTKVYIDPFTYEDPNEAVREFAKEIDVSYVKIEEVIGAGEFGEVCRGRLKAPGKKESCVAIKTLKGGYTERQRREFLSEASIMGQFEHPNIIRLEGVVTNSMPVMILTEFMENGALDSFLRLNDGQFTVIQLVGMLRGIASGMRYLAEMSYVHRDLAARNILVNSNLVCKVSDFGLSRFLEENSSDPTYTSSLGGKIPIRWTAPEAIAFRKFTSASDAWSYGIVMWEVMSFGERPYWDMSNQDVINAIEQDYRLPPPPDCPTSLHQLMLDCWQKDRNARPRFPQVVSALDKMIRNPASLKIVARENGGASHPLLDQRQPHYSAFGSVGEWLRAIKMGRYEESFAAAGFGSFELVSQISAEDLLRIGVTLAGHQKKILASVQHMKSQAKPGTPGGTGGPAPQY

Sequence of kinases (KINOMEscan panel) (Homo sapiens, UniProt P08069) (P08069 31-1367): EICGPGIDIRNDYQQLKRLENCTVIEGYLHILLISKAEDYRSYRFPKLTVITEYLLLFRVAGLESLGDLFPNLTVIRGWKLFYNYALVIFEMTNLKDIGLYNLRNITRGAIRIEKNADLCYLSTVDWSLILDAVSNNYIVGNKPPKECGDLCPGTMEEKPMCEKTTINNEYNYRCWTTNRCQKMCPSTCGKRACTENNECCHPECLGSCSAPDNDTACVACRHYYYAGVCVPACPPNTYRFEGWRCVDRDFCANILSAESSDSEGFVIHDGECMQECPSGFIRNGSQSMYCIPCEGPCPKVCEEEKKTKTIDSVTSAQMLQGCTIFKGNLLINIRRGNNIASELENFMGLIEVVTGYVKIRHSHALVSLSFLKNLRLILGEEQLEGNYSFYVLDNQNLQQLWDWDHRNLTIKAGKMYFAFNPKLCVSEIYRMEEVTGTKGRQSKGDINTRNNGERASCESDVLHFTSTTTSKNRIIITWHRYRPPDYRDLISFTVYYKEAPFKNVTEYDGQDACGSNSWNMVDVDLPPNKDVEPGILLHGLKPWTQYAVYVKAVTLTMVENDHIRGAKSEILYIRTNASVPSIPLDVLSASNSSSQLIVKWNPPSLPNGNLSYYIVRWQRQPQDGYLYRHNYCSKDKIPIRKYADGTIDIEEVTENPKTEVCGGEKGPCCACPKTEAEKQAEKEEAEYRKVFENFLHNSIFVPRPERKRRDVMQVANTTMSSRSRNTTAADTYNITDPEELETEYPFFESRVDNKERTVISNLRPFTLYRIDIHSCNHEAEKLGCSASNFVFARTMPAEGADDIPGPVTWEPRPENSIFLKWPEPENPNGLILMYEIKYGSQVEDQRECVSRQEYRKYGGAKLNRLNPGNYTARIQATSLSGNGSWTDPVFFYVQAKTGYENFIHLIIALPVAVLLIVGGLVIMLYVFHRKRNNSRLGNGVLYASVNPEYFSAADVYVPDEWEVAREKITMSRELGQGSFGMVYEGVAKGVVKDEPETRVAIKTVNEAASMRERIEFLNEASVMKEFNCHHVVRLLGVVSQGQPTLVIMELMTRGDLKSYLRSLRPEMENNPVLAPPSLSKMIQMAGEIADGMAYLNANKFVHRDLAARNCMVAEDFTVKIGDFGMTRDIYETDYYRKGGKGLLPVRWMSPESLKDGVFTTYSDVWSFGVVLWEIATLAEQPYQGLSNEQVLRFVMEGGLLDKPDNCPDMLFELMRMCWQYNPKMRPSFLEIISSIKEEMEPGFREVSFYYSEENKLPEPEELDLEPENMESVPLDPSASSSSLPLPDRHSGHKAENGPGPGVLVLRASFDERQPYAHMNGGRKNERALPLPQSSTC
Sequence of kinases (KINOMEscan panel) (Homo sapiens, UniProt P42336, E545K) (P42336 whole entry E545K): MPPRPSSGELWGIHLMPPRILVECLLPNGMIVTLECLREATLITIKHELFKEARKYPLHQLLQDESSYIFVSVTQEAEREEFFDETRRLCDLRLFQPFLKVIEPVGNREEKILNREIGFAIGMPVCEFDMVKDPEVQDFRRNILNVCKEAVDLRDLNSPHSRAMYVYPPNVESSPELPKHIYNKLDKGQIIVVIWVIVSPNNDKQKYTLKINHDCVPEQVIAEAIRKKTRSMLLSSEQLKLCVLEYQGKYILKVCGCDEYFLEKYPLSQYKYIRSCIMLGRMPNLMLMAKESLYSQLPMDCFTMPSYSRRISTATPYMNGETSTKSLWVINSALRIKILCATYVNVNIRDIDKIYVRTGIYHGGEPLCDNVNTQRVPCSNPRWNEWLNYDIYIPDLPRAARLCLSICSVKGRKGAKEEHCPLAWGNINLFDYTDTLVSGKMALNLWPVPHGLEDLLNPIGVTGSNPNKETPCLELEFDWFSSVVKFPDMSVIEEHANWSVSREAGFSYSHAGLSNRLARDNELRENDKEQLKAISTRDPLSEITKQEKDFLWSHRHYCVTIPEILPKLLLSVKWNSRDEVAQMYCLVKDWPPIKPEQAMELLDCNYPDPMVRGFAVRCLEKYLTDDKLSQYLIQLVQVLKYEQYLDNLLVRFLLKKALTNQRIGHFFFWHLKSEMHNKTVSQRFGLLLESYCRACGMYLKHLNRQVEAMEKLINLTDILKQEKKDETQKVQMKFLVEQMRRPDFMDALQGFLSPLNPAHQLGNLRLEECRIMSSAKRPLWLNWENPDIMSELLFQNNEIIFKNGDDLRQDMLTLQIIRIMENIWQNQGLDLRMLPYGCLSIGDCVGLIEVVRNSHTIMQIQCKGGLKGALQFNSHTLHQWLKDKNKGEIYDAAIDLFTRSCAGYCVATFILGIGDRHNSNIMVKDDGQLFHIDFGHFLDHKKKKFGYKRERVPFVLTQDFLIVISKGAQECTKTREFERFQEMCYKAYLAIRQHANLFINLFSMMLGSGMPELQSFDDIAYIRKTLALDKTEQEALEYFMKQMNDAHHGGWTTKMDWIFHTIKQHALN

Row | SMILES | KINOMEscan IGF1R [1] | KINOMEscan PIK3CA(E545K) [2] | KINOMEscan MAST1 [3] | KINOMEscan DDR1 [4] | KINOMEscan LCK [5] | KINOMEscan ALK(C1156Y) [6] | KINOMEscan TSSK3 [7] | KINOMEscan PAK5 [8] | KINOMEscan PAK2 [9] | KINOMEscan EPHB4 [10]
1 | Cc1cccc(-c2nc(Nc3ccc4nn(C)cc4c3)c3ccccc3n2)n1 [NK167] | 0 | 67 | 0 | 0 | 0 | 11 | 0 | 0 | 0 | 0
2 | Cc1cccc(-c2nc(N(C)c3ccc4ncsc4c3)c3ccccc3n2)n1 [NK-161] | 14 | 40 | 0 | 0 | 2 | 2 | 6 | 2 | 0 | 0
